In ChEMBL document CHEMBL1125090, “Expedient synthesis and biochemical properties of an [125I]-labeled analogue of glyburide, a radioligand for ATP-inhibited potassium channels” (J Med Chem, 1990):

Assay: Inhibition of [125I]-I binding to ATP-inhibited Potassium channel receptor of Rat brain homogenate

Ki [nM]	SMILES
2.6	COc1ccc(I)cc1C(=O)NCCc1ccc(S(=O)(=O)NC(=O)NC2CCCCC2)cc1
8.2	Cc1cnc(C(=O)NCCc2ccc(S(=O)(=O)NC(=O)NC3CCCCC3)cc2)cn1 [GLIPIZIDE]
0.608	COc1ccc(Cl)cc1C(=O)NCCc1ccc(S(=O)(=O)NC(=O)NC2CCCCC2)cc1 [GLYBURIDE]
